Results from US9006451B1, “2-anilinonicotinyl based chalcones useful as potential anticancer agents and process for preparation thereof” (Council of Scientific and Industrial Research, priority 2013, dated 2015).

Columns and labels:
Type in all cases: cell-based
NCI-H522 = assay: NCI 60 human tumor cell line screen (SRB): NCI-H522; conditions: NCI-H522, Non-small cell lung, 48 hours, read-out: GI50 values (μM conc.)
Protocol: (§1) The in vitro anticancer activity studies for these chalcone analogues were carried out at the National Cancer Institute, USA.
(§2) The chalcone compounds have been tested at NCI, USA, against sixty human tumor cell lines derived from nine cancer types (leukemia, non-small cell lung cancer, colon cancer, CNS cancer, melanoma cancer, ovarian cancer, renal cancer, prostate cancer and breast cancer). For these compounds results are expressed as growth inhibition (GI50) values as per NCI protocol.
(§3) We describe here the development and implementation of a pilot-scale, in vitro, anticancer drug screen utilizing a panel of 60 human tumor cell lines organized into subpanels representing leukemia, melanoma, and cancers of the lung, colon, kidney, ovary, and central nervous system. The ultimate goal of this disease-oriented screen is to facilitate the discovery of new compounds with potential cell line-specific and/or subpanel-specific antitumor activity. In the current screening protocol, each cell line is inoculated onto microtiter plates, then preincubated for 28 hours. Subsequently, test agents are added in five 10-fold dilutions and the culture is incubated for an additional 48 hours. For each test agent, a dose-response profile is generated. End-point determinations of the cell viability or cell growth are performed by in situ fixation of cells, followed by staining with a protein-binding dye, sulforhodamine B (SRB). The SRB binds to the basic amino acids of cellular macromolecules; the solubilized stain is measured spectrophotometrically to determine relative cell growth or viability in treated and untreated cells.

COLO-205 = assay: NCI 60 human tumor cell line screen (SRB): COLO-205; conditions: COLO-205, Colon, 48 hours, read-out: GI50 values (μM conc.)
Protocol: as §1, §2, §3

EKVX = assay: NCI 60 human tumor cell line screen (SRB): EKVX; conditions: Non-small cell lung, 48 hours, read-out: GI50 values (μM conc.)
Protocol: as §1, §2, §3

MDA-MB-435 = assay: NCI 60 human tumor cell line screen (SRB): MDA-MB-435; conditions: MDA-MB-435, Melanoma, 48 hours, read-out: GI50 values (μM conc.)
Protocol: as §1, §2, §3

SF-539 = assay: NCI 60 human tumor cell line screen (SRB): SF-539; conditions: SF-539, CNS, 48 hours, read-out: GI50 values (μM conc.)
Protocol: as §1, §2, §3

T-47D = assay: NCI 60 human tumor cell line screen (SRB): T-47D; conditions: T47D, Breast, 48 hours, read-out: GI50 values (μM conc.)
Protocol: as §1, §2, §3

SR = assay: NCI 60 human tumor cell line screen (SRB): SR; conditions: Leukemia, 48 hours, read-out: GI50 values (μM conc.)
Protocol: as §1, §2, §3

SNB-75 = assay: NCI 60 human tumor cell line screen (SRB): SNB-75; conditions: SNB-75, CNS, 48 hours, read-out: GI50 values (μM conc.)
Protocol: as §1, §2, §3

786-0 = assay: NCI 60 human tumor cell line screen (SRB): 786-0; conditions: 786-0, Renal, 48 hours, read-out: GI50 values (μM conc.)
Protocol: as §1, §2, §3

UACC-257 = assay: NCI 60 human tumor cell line screen (SRB): UACC-257; conditions: UACC-257, Melanoma, 48 hours, read-out: GI50 values (μM conc.)
Protocol: as §1, §2, §3

HS 578T = assay: NCI 60 human tumor cell line screen (SRB): HS 578T; conditions: Breast, 48 hours, read-out: GI50 values (μM conc.)
Protocol: as §1, §2, §3

IGROV1 = assay: NCI 60 human tumor cell line screen (SRB): IGROV1; conditions: IGROV-1, IGROV1, Ovarian, 48 hours, read-out: GI50 values (μM conc.)
Protocol: as §1, §2, §3

KM12 = assay: NCI 60 human tumor cell line screen (SRB): KM12; conditions: KM12, Colon, 48 hours, read-out: GI50 values (μM conc.)
Protocol: as §1, §2, §3

SF-295 = assay: NCI 60 human tumor cell line screen (SRB): SF-295; conditions: SF-295, CNS, 48 hours, read-out: GI50 values (μM conc.)
Protocol: as §1, §2, §3

BT-549 = assay: NCI 60 human tumor cell line screen (SRB): BT-549; conditions: BT-549, Breast, 48 hours, read-out: GI50 values (μM conc.)
Protocol: as §1, §2, §3

A498 = assay: NCI 60 human tumor cell line screen (SRB): A498; conditions: A498, Renal, 48 hours, read-out: GI50 values (μM conc.)
Protocol: as §1, §2, §3

HCT-15 = assay: NCI 60 human tumor cell line screen (SRB): HCT-15; conditions: HCT-15, Colon, 48 hours, read-out: GI50 values (μM conc.)
Protocol: as §1, §2, §3

LOX IMVI = assay: NCI 60 human tumor cell line screen (SRB): LOX IMVI; conditions: Melanoma, 48 hours, read-out: GI50 values (μM conc.)
Protocol: as §1, §2, §3

OVCAR-8 = assay: NCI 60 human tumor cell line screen (SRB): OVCAR-8; conditions: OVCAR-8, Ovarian, 48 hours, read-out: GI50 values (μM conc.)
Protocol: as §1, §2, §3

OVCAR-5 = assay: NCI 60 human tumor cell line screen (SRB): OVCAR-5; conditions: OVCAR-5, Ovarian, 48 hours, read-out: GI50 values (μM conc.)
Protocol: as §1, §2, §3

SK-MEL-28 = assay: NCI 60 human tumor cell line screen (SRB): SK-MEL-28; conditions: SK-MEL-28, Melanoma, 48 hours, read-out: GI50 values (μM conc.)
Protocol: as §1, §2, §3

MDA-MB-468 = assay: NCI 60 human tumor cell line screen (SRB): MDA-MB-468; conditions: MDA-MB-468, Breast, 48 hours, read-out: GI50 values (μM conc.)
Protocol: as §1, §2, §3

M14 = assay: NCI 60 human tumor cell line screen (SRB): M14; conditions: M14, Melanoma, 48 hours, read-out: GI50 values (μM conc.)
Protocol: as §1, §2, §3

SK-OV-3 = assay: NCI 60 human tumor cell line screen (SRB): SK-OV-3; conditions: SK-OV-3, Ovarian, 48 hours, read-out: GI50 values (μM conc.)
Protocol: as §1, §2, §3

MDA-MB-231/ATCC = assay: NCI 60 human tumor cell line screen (SRB): MDA-MB-231/ATCC; conditions: Breast, 48 hours, read-out: GI50 values (μM conc.)
Protocol: as §1, §2, §3

HT29 = assay: NCI 60 human tumor cell line screen (SRB): HT29; conditions: HT-29, HT29, Colon, 48 hours, read-out: GI50 values (μM conc.)
Protocol: as §1, §2, §3

ACHN = assay: NCI 60 human tumor cell line screen (SRB): ACHN; conditions: Renal, 48 hours, read-out: GI50 values (μM conc.)
Protocol: as §1, §2, §3

MALME-3M = assay: NCI 60 human tumor cell line screen (SRB): MALME-3M; conditions: Melanoma, 48 hours, read-out: GI50 values (μM conc.)
Protocol: as §1, §2, §3

HCT-116 = assay: NCI 60 human tumor cell line screen (SRB): HCT-116; conditions: HCT-116, Colon, 48 hours, read-out: GI50 values (μM conc.)
Protocol: as §1, §2, §3

Row | SMILES | GI50 (NCI-H522) | GI50 (COLO-205) | GI50 (EKVX) | GI50 (MDA-MB-435) | GI50 (SF-539) | GI50 (T-47D) | GI50 (SR) | GI50 (SNB-75) | GI50 (786-0) | GI50 (UACC-257) | GI50 (HS 578T) | GI50 (IGROV1) | GI50 (KM12) | GI50 (SF-295) | GI50 (BT-549) | GI50 (A498) | GI50 (HCT-15) | GI50 (LOX IMVI) | GI50 (OVCAR-8) | GI50 (OVCAR-5) | further results
1 | COc1cc(Nc2ncccc2/C=C/C(=O)c2cc(OC)c(OC)c(OC)c2)cc(OC)c1OC [6v, (E)-1-(3,4,5-Trimethoxyphenyl)-3-(2-(3,4,5-trimethoxyphenylamino)pyridin-3-yl)prop-2-en-1-one] | 7.44 µM | 4.44 µM | 7.55 µM | 5.63 µM | 12.2 µM | 5.3 µM | 3.6 µM | 4.12 µM | 5.98 µM | 8.52 µM | 13.2 µM | 12.6 µM | 6.5 µM | 4.92 µM | 14.3 µM | 2.64 µM | 5.02 µM | 4.51 µM | 6.7 µM | 16.3 µM | GI50 (SK-MEL-28): 5.43 µM; GI50 (MDA-MB-468): 6.78 µM; GI50 (M14): 8.99 µM; GI50 (SK-OV-3): 11.1 µM; GI50 (MDA-MB-231/ATCC): 12.6 µM; GI50 (HT29): 5.51 µM; GI50 (ACHN): 5.34 µM; GI50 (MALME-3M): 15.3 µM; GI50 (HCT-116): 3.77 µM
2 | COc1cc(C(=O)/C=C/c2cccnc2Nc2ccccc2)cc(OC)c1OC [6a, (E)-3-(2-(Phenylamino)pyridin-3-yl)-1-(3,4,5-trimethoxyphenyl)prop-2-en-1-one] | 0.49 µM | 1.29 µM | 1.61 µM | 0.63 µM | 1.65 µM | 1.43 µM | 0.34 µM | 1.13 µM | 1.29 µM | 1.51 µM | 2.15 µM | 2.37 µM | 0.92 µM | 1.87 µM | 1.26 µM | 1.42 µM | 0.74 µM | 0.49 µM | 1.27 µM | 1.54 µM | GI50 (SK-MEL-28): 1.58 µM; GI50 (MDA-MB-468): 0.66 µM; GI50 (M14): 1.5 µM; GI50 (SK-OV-3): 1.6 µM; GI50 (MDA-MB-231/ATCC): 1.4 µM; GI50 (HT29): 0.51 µM; GI50 (ACHN): 1.28 µM; GI50 (MALME-3M): 1.92 µM; GI50 (HCT-116): 0.33 µM
3 | COc1ccc(Nc2ncccc2/C=C/C(=O)c2cc(OC)c(OC)c(OC)c2)cc1 [6h, (E)-3-(2-(4-Methoxyphenylamino)pyridin-3-yl)-1-(3,4,5-trimethoxyphenyl)prop-2-en-1-one] | 0.36 µM | 1.69 µM | 1.8 µM | 1.46 µM | 2.04 µM | 1.67 µM | 0.46 µM | 1.15 µM | 1.69 µM | 1.53 µM | 2.68 µM | 2 µM | 1.69 µM | 1.85 µM | 1.58 µM | 3.19 µM | 1.66 µM | 1.23 µM | 1.56 µM | 1.97 µM | GI50 (SK-MEL-28): 1.37 µM; GI50 (MDA-MB-468): 1.15 µM; GI50 (M14): 1.65 µM; GI50 (SK-OV-3): 2.72 µM; GI50 (MDA-MB-231/ATCC): 1.94 µM; GI50 (HT29): 1.6 µM; GI50 (ACHN): 1.55 µM; GI50 (MALME-3M): 1.4 µM; GI50 (HCT-116): 1.02 µM
4 | COc1cc(/C=C/C(=O)c2cccnc2Nc2ccc(F)cc2)cc(OC)c1OC [7f, (E)-1-(2-(4-Fluorophenylamino)pyridin-3-yl)-3-(3,4,5-trimethoxyphenyl)prop-2-en-1-one] | 2.69 µM | 2.64 µM | 3.94 µM | 3.05 µM | 2.85 µM | 3.06 µM | 1.93 µM | 1.93 µM | 3.9 µM | 2.9 µM | 3.68 µM | 7.42 µM | 3.72 µM | 4.16 µM | 2.7 µM | 2.18 µM | 2.27 µM | 1.69 µM | 2.69 µM | 4.1 µM | GI50 (SK-MEL-28): 3.22 µM; GI50 (MDA-MB-468): 1.77 µM; GI50 (M14): 3.19 µM; GI50 (SK-OV-3): 3.1 µM; GI50 (MDA-MB-231/ATCC): 3.07 µM; GI50 (HT29): 2.75 µM; GI50 (ACHN): 2.84 µM; GI50 (MALME-3M): 6.9 µM; GI50 (HCT-116): 1.54 µM
5 | COc1ccc(C(=O)/C=C/c2cccnc2Nc2cc(OC)c(OC)c(OC)c2)cc1 [6z, (E)-1-(4-Methoxyphenyl)-3-(2-(3,4,5-trimethoxyphenylamino)pyridin-3-yl)prop-2-en-1-one] | 1.33 µM | 1.54 µM | 10.8 µM | 0.74 µM | 1.81 µM | 2.04 µM | 0.09 µM | 2.44 µM | 1.31 µM | 3.63 µM | 6.38 µM | 4.64 µM | 0.46 µM | 2.91 µM | 2.41 µM | 4.28 µM | 0.91 µM | 1.12 µM | 2.2 µM | 1.95 µM | GI50 (SK-MEL-28): 3.72 µM; GI50 (MDA-MB-468): 0.77 µM; GI50 (M14): 2.55 µM; GI50 (SK-OV-3): 3.15 µM; GI50 (MDA-MB-231/ATCC): 2.15 µM; GI50 (HT29): 0.37 µM; GI50 (ACHN): 1.7 µM; GI50 (MALME-3M): 3.24 µM; GI50 (HCT-116): 0.53 µM
6 | COc1cc(C(=O)/C=C/c2cccnc2Nc2ccc(Cl)cc2)cc(OC)c1OC [6ax, (E)-3-(2-(4-Chlorophenylamino)pyridin-3-yl)-1-(3,4,5-trimethoxyphenyl)prop-2-en-1-one] | 1.46 µM | 1.83 µM | 1.61 µM | 1.49 µM | 1.71 µM | 1.42 µM | 0.77 µM | 1.63 µM | 1.46 µM | 1.5 µM | 3.08 µM | 2.24 µM | 1.83 µM | 1.93 µM | 1.5 µM | 1.4 µM | 1.49 µM | 1.27 µM | 1.63 µM | 1.74 µM | GI50 (SK-MEL-28): 1.72 µM; GI50 (MDA-MB-468): 1.29 µM; GI50 (M14): 1.75 µM; GI50 (SK-OV-3): 1.72 µM; GI50 (MDA-MB-231/ATCC): 1.49 µM; GI50 (HT29): 1.43 µM; GI50 (ACHN): 1.77 µM; GI50 (MALME-3M): 1.91 µM; GI50 (HCT-116): 0.56 µM
